# Data reported in patent US12221445B2, “Crystalline salts of 5-methyl-(6S)-tetrahydrofolic acid and amino ethyl esters” (MERCK PATENT GMBH, priority 2018, dated 2025).
# Structures can show the parent of a compound that is named as a salt.
# Key:
# [1] = Kinetic solubility in water (one minute agitation, gravimetric evaluation); settings: for amount dissolved within one minute in 2.00 ml water: according to Example 6; for kinetic solubility (mg of 5-methyl-(6S)-tetrahydrofolic acid per mL): purified/de-ionized water, room temperature, agitated one minute, expressed as 5-methyl-(6S)-tetrahydrofolic acid
# Experimental: 42.3 mg of the anhydrous form of the crystalline salt of 5-methyl-(6S)-tetrahydrofolic acid and L-phenylalanine ethyl ester according to Example 4 was weighed into a 7 mL glass vial with a screw cap. 2.00 mL of purified/de-ionized water (for instance water for chromatography) was added to the solid using an adjustable volumetric pipette. The mixture was vigorously agitated at room temperature for one minute.
# The solution was filtered by centrifugal filtration and 1.50 mL of the aqueous solution was transferred into a tared glass vial (about 10 mL volume). The water was evaporated in an air dryer at 40° C. for about 15 hours, then at 50° C. for about eight hours, subsequently drying was completed at 50° C. under vacuum (10 to 20 mbar) for about 13 hours. The solubility was determined by gravimetric evaluation of the solid residue.
# 2.00 mL of purified/de-ionized water (for instance water for chromatography) was added to the solid using an adjustable volumetric pipette. The mixture was vigorously agitated at room temperature for one minute. […] The suspension was filtered by centrifugal filtration and 1.50 mL of the aqueous solution was transferred into a tared glass vial (about 10 mL volume). The water was evaporated in an air dryer at 40° C. for about 15 hours, then at 50° C. for about eight hours, subsequently drying was completed at 50° C. under vacuum (10 to 20 mbar) for about 13 hours. The solubility was determined by gravimetric evaluation of the solid residue.
# [2] = at 50% to 60% relative humidity; listed as crystalline salt of 5-methyl-(6S)-tetrahydrofolic acid and L-methionine ethyl es
# [3] = at room temperature; calcium salt; cited from earlier work
# [4] = Dynamic water vapor sorption (DVS) experiment; type: physicochemical; settings: FIG. 3; for change of relative sample mass during DVS test: RH program 50→20→75→50%, 5% per hour; for change in water content: relative humidity range between 20% and 75%
# Experimental: DVS measurements are typically performed with an SPS11-100n “Sorptions Prufsystem” from ProUmid (formerly “Projekt Messtechnik”), August-Nagel-Str. 23, 89079 Ulm (Germany).
# 22 mg of the salt of 5-methyl-(6S)-tetrahydrofolic acid with L-phenylalanine ethyl ester Form B according to Example 2 was weighed into an aluminum sample pan for DVS measurement. A DVS measurement was performed. For relative humidity (RH) scans, change rates of 5% per hour were used. The sample pan was placed into the instrument and a defined relative humidity change program was started according to the following steps: • (1) Maintained RH for 2 hours at 50%, then • (2) scanned RH from 50→20% at a rate of 5% per hour and maintained RH at 20% for 10 hours, then • (3) scanned RH from 20→75% at a rate of 5% per hour and maintained RH at 75% for 10 hours, then • (4) scanned RH from 75→50% RH at a rate of 5% per hour and maintained RH at 50% for two hours.
compound,measurement,setting,value
5-methyl-(6S)-tetrahydrofolic acid L-methionine ethyl ester salt,kinetic solubility expressed as 5-methyl-(6S)-tetrahydrofolic acid,"[1]; at r.t., corresponds to mg/ml of 5-methyl-(6S)-tetrahydrofolic acid",greater than 18 mg/ml
5-methyl-(6S)-tetrahydrofolic acid L-methionine ethyl ester salt [Example 7],water content,[2],below 1%
5-methyl-(6S)-tetrahydrofolic acid L-methionine ethyl ester salt [Example 8],water content,[2],about 5%
5-methyl-(6S)-tetrahydrofolic acid calcium salt [calcium salt (Form I)],aqueous solubility,[3],about 10 mg/ml
5-methyl-(6S)-tetrahydrofolic acid calcium salt [calcium salt (Form III)],aqueous solubility,[3],about 2.5 mg/ml
CCOC(=O)[C@@H](N)Cc1ccccc1.CCOC(=O)[C@@H](N)Cc1ccccc1.CN1c2c([nH]c(N)nc2=O)NC[C@@H]1CNc1ccc(C(=O)N[C@@H](CCC(=O)O)C(=O)O)cc1 [5-methyl-(6S)-tetrahydrofolic acid L-phenylalanine ethyl ester 1:2 salt],amount dissolved within one minute in 2.00 ml water,[1],11.3 mg
same,improvement of kinetic solubility versus calcium salt metastable Form I,[1]; versus the known (metastable Form I) of the calcium salt,about 50%
same,change of relative sample mass during DVS test,[4],less than 0.3%
same,change in water content,[4],less than 0.3%
"CN1c2c(nc(N)[nH]c2=O)NC[C@@H]1CNc1ccc(C(=O)N[C@@H](CCC(=O)O)C(=O)O)cc1 [5-methyl-(6S)-tetrahydrofolic acid calcium salt, reference compound]",amount dissolved within one minute in 2.00 ml water,[1],9.0 mg
same,kinetic solubility (mg of 5-methyl-(6S)-tetrahydrofolic acid per mL),[1],9.0 mg per mL
same,solubility kinetic at 1 min,"[1]; water, thermodynamic from solid",< 10000 µg/mL
same,change of relative sample mass during DVS test,[4],about 3%
same,change in water content,[4],about 3%
"CCOC(=O)[C@@H](N)Cc1ccccc1.CCOC(=O)[C@@H](N)Cc1ccccc1.CN1c2c([nH]c(N)nc2=O)NC[C@@H]1CNc1ccc(C(=O)N[C@@H](CCC(=O)O)C(=O)O)cc1 [Example 4, 5-methyl-(6S)-tetrahydrofolic acid L-phenylalanine ethyl ester 1:2 salt]",kinetic solubility (mg of 5-methyl-(6S)-tetrahydrofolic acid per mL),[1],11.3 mg per mL
